Reference: publication PMC11487561 (ACS Chemical Neuroscience, 2024)
pEC50: −log10 of the molar value. Read-outs that look alike come from different tables or passages of the source.

What was measured:
[1] = target: T1, human M4 (hM4) (Homo sapiens, UniProt P08173); experiment: Calcium mobilization assay, hM4/Gqi5-CHO cells, EC20 acetylcholine (PAM); format: cell-based; details: for Emax: read-out: hM4 %ACh Max; for fold loss in hM4 potency vs comparator: 14e vs 14g, 14c vs VU6007215; for fold decrease in hM4 activity with R1 larger than methyl: relative to the R1 = methyl analogue
T1 construct: expressed in transfected cells
T1 sequence (P08173 1-479): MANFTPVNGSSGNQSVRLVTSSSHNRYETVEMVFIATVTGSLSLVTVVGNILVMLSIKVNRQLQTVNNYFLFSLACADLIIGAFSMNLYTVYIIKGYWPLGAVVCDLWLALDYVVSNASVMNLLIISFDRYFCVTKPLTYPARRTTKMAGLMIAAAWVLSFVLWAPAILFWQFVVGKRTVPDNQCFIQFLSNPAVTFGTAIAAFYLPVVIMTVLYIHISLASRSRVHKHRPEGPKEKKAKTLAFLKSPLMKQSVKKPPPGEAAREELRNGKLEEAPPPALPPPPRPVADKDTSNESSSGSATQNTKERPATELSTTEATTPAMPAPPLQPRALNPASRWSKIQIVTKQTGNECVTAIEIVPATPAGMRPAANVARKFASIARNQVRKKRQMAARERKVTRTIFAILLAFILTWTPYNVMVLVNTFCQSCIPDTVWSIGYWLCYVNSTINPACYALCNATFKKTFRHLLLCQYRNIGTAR

[2] = Binding in plasma from rat (equilibrium dialysis); format: in vitro ADME; details: read-out: rat fu,plasma
Method: (§1) Binding in plasma from rat and human.
(§2) Determination of compounds’ fraction unbound (f u) in plasma from rat and human was conducted in vitro via equilibrium dialysis using HTDialysis membrane plates. Dialysis membranes (four paired strips per HTD assay) were hydrated as described by the manufacturer and inserted into the HTD plate, which was assembled and prepared for sample addition by the dispensing of blank buffer (DPBS, 100 µL/well) into the ‘top half’ of each membrane-split well. Each compound was diluted into plasma from each species (5 µM final concentration), which was aliquoted in triplicate to the ‘bottom half’ of the prepared HTD plate wells. The HTD plate was sealed and incubated for 6 hours at 37 °C. Following incubation, each well (both top and bottom halves) were transferred (20 µL) to the corresponding wells of a 96-shallow-well (V-bottom) plate. The daughter plates were then matrix-matched (buffer side wells received equal volume of plasma, and plasma side wells received equal volume of buffer), and extraction solution (120 µL; acetonitrile containing 50 nM carbamazepine as IS) was added to all wells of both daughter plates to precipitate protein and extract test article. The plates were then sealed and centrifuged (3500 rcf) for 10 minutes at ambient temperature. Supernatant (60 µL) from each well of the daughter plates was then transferred to the corresponding wells of new daughter plates (96-shallow-well, V bottom) containing water (Milli-Q, 60 µL/well), and the plates were sealed in preparation for LC-MS/MS analysis (see below). fu was calculated as (analyte to IS MS peak area ratio from Trans-buffer side) / (analyte to IS MS peak area ratio from Cis-plasma side). Mean values for each species were calculated from 3 replicates.

[3] = Rat plasma-to-brain level (PBL) cassette, brain distribution; format: in vivo; details: SD rat, 0.2 mg/kg IV, 0.2 mg/kg; for Kp at 0.25 h / Kp uu at 0.25 h: male, Sprague-Dawley, rat, brain / plasma, iv
[4] = Binding in brain homogenate from rat (equilibrium dialysis); format: in vitro ADME; details: for rat fbrain: fraction unbound, equilibrium dialysis, rat brain homogenates; for fraction unbound at 6 h, 1 µM: rat, brain homogenate, in %, read-out: fu,brain (rat brain homogenate)
Method: Binding in brain homogenate from rat.
Determination of fraction unbound (f u) in brain homogenate from rat was conducted using the same methodology and procedure than described for plasma protein binding assay with the following modifications: 1) a final compound concentration of 1 μM was used, 2) naïve rat brains were homogenized in DPBS (1:3 composition of brain: DPBS, w/w) using a Mini-Bead Beater™ machine in order to obtain […]
The diluted fraction unbound (f u2) in brain was calculated as (analyte to IS MS peak area ratio from Trans-buffer side) / (analyte to IS MS peak area ratio from Cis-brain homogenate side). Undiluted fraction unbound for the brain was calculated using the following equation: […]
Mean values for each species were calculated from 3 replicates. […]

[5] = Intrinsic clearance in human liver microsomes; format: in vitro ADME; details: pH 7.4; human liver microsomes
Method: (§3) Intrinsic Clearance in Rat and Human Liver Microsomes
(§4) The in vitro intrinsic clearance (CL int) was investigated in commercially obtained hepatic microsomes from rat and human donors using the substrate depletion (i.e., loss-of-parent vs. time, or t 1/2 method) approach with analyte detection via liquid chromatography-tandem mass spectrometry (LC-MS/MS). For each species, mean %parent remaining values at each time point were calculated from replicates raw data (analyte:IS peak area ratios) and used to determine in vitro t 1/2 and CLint.
(§5) Experiments were carried out using a robot-assisted (TECAN model Evo 200). Compound was incubated (1 µM final concentration) in buffer (100 mM potassium phosphate pH 7.4 with 3 mM MgCl2) containing hepatic microsomes (0.5 mg/mL final concentration) from multiple species, discretely, at 37 °C under constant orbital shaking. After 5 minutes (pre-incubation), reactions were initiated by addition of nicotinamide adenine dinucleotide phosphate (NADPH, 1 mM final concentration). At selected time intervals (0, 3, 7, 15, 25, and 45 minutes) post-addition of NADPH, aliquots (50 µL) were taken and placed into a 96-shallow-well plate containing ice cold acetonitrile (150 µL) with carbamazepine (IS, 50 nM). The plates were then centrifuged (3000 rcf at 4 °C) for 10 minutes. The supernatants were transferred to a new 96-shallow-well daughter plate and diluted (1:1 v/v) with water (Milli-Q filtered). The plates were then sealed in preparation for LC-MS/MS analysis (see below).
(§6) Raw LC-MS/MS peak area data generated from the assay samples were used to construct natural log-transformed %parent remaining vs. time plots (using t = 0 minute post-NADPH addition sample data as starting point set to 100%). In vitro compound half-life (t 1/2) values were obtained using the following […]
(§7) k is the slope from linear regression analysis of the natural log-transformed data (using means from Where all replicates at each time point). Resulting t 1/2 values were then used to calculate hepatic CLint values according to the following equation and with the use of species-specific scale-up factors for liver weight (grams) per total body weight (kg): […]
(§8) CLint = in vitro t1/2 x 0.5 mg microsomes x 1 gram liver x kg body wt aScale-up factors used are 45 (rat) and 20 (human).2
(§9) Predicted hepatic clearance (CLhep) was calculated using the following equation: […]
(§10) Qh represents hepatic blood flow (mL/min/kg): 21 for human, 70 for rat, and 90 for mouse.
(§11) Prepared samples were injected (10 µL each) onto an AB Sciex Triple Quad 4500 mass spectrometer system with an Agilent 1260 Infinity II pump and autosampler. Mass spectrometer conditions are described in Table S1. Quantitation of compounds was performed via AB Sciex Multiquant software using the raw analyte:IS peak area ratios. The typical detection range was 0.5 ng/mL to ≥ 5,000 ng/mL utilizing a quadratic equation regression with 1/x2 weighting. […]
(§12) Table S1. LC-MS/MS Conditions*
(§13) Mobile phase A 0.5% Formic Acid in Water
(§14) Mobile phase B 0.5% Formic Acid in Acetonitrile
(§15) Gradient Time % Mobile Phase B

[6] = Intrinsic clearance in rat liver microsomes; format: in vitro ADME; details: pH 7.4; rat liver microsomes
Method: as §3, §4, §5, §6, §7, §8, §9, §10, §11, §12, §13, §14, §15

[7] = Binding in plasma from human (equilibrium dialysis); format: in vitro ADME; details: for fraction unbound at 6 h, 5 µM: human, plasma, read-out: human fu,plasma
Method: as §1, §2

[8] = calcium mobilization, hM4/Gqi5-CHO cells, EC20 acetylcholine, read-out: hM4 EC50
[9] = calcium mobilization, hM4/Gqi5-CHO cells, EC20 acetylcholine, read-out: hM4 pEC50 (converted)
[10] = calcium mobilization, hM4/Gqi5-CHO cells, EC20 acetylcholine
[11] = fraction unbound, equilibrium dialysis
[12] = total brain to total plasma ratio
[13] = unbound brain to unbound plasma ratio

| SMILES | pEC50 [1, 8] | Emax [1, 10] [%] | hM4 pEC50 [1, 10] | also measured |
| --- | --- | --- | --- | --- |
| Cc1nc(C)c2c(n1)sc1c(N3CCCCC3)ncnc12 [14a] | < 4.52 | – | – | EC50 [1, 9]: > 31.6 µM |
| Cc1nc(C)c2c(n1)sc1c(N3CCOCC3)ncnc12 [14b] | 5.25 | 39 | – | EC50 [1, 9]: 5.5 µM |
| Cc1nc(C)c2c(n1)sc1c(N3CC4(COC4)C3)ncnc12 [14c] | 5.80 | 76 | 5.80 | fold loss in hM4 potency vs comparator [1]: 11 fold |
| Cc1nc(C)c2c(n1)sc1c(N3CCC3)ncnc12 [14d] | 5.85 | 60 | 5.84 | – |
| Cc1nc(C)c2c(n1)sc1c(N3CCC(F)(F)C3)ncnc12 [14e] | 6.19 | 77 | 6.20 | fold loss in hM4 potency vs comparator [1]: 2.2 fold |
| Cc1nc(C)c2c(n1)sc1c(NC3CCCC3)ncnc12 [14f] | 6.25 | 56 | 6.25 | – |
| Cc1nc(C)c2c(n1)sc1c(N3CCCC3)ncnc12 [14g] | 6.54 | 52 | 6.54 | – |
| Cc1nc(C)c2c(n1)sc1c(N3CC4CC4C3)ncnc12 (centres unmarked) [14i] | 6.80 | 76 | 6.81 | fraction unbound at 6 h, 5 µM [2, 11]: 0.048; fraction unbound at 6 h, 5 µM ([2]; in %): > 0.05; Kp, brain:plasma ([3]; 0.25 h, total brain to total plasma ratio): 7.27; Kp,uu, brain:plasma ([3]; 0.25 h, unbound brain to unbound plasma ratio): 1.82; Kp at 0.25 h [3, 12]: > 5; Kp uu at 0.25 h [3, 13]: > 1; rat fbrain [4]: 0.012; fraction unbound at 6 h, 1 µM [4]: 0.01 to 0.05; CLint scaled at 1 µM [5]: 177 mL/min/kg; CLint scaled at 1 µM [6]: 1050 mL/min/kg; fraction unbound at 6 h, 5 µM [7, 11]: 0.013; fraction unbound at 6 h, 5 µM ([7]; in %): 0.01 to 0.05 |
| Cc1nc(C)c2c(n1)sc1c(NCc3ccc(C(C)(C)O)cc3)ncnc12 [14j] | 5.89 | 70 | 5.90 | EC50 ([1]; in μM, read-out: hM4 EC50): > 1 µM |
| COc1ccc(CNc2ncnc3c2sc2nc(C)nc(C)c23)cc1F [14k] | 5.92 | 65 | 5.94 | EC50 ([1]; in μM, read-out: hM4 EC50): > 1 µM |
| CCN(CC)c1nccc2c1sc1nc(C)nc(C)c12 [22a] | – | 38 | – | – |
| Cc1nc(C)c2c(n1)sc1c(N3CCN(C)CC3)nccc12 [22b] | < 5.00 | 52 | – | – |
| Cc1nc(C)c2c(n1)sc1c(NC3CCC3)nccc12 [22c] | – | 95 | 6.52 | – |
| Cc1nc(C)c2c(n1)sc1c(NC3CCCC3)nccc12 [22d] | 6.89 | 73 | 6.87 | – |
| Cc1nc(C)c2c(n1)sc1c(N3CCCCC3)nccc12 [22e] | > 6.72 | 58 | – | fraction unbound at 6 h, 5 µM [2, 11]: 0.019; Kp at 0.25 h [3, 12]: 7.77; Kp uu at 0.25 h [3, 13]: 1.64; rat fbrain [4]: 0.004; fraction unbound at 6 h, 1 µM [4]: < 0.01; CLint scaled at 1 µM [5]: 134 mL/min/kg; CLint scaled at 1 µM [6]: 3440 mL/min/kg; fraction unbound at 6 h, 5 µM [7, 11]: 0.007; fraction unbound at 6 h, 5 µM ([7]; in %): < 0.01; human fu,plasma ([7]; in %): highly bound; EC50 [1, 9]: 0.0741 µM |
| Cc1nc(C)c2c(n1)sc1c(NCc3ccc(C(C)(C)O)cc3F)nccc12 [22h] | – | 89 | 6.08 | – |
| Cc1nc(C)c2c(n1)sc1c(NCc3ccc(C(C)(C)O)c(F)c3)nccc12 [22i] | 6.55 | 86 | – | fraction unbound at 6 h, 1 µM [4]: < 0.01 |
| Cc1nc(CC(C)C)nc2sc3c(NCc4ccc(C(C)(C)O)cc4)nccc3c12 [22n] | – | 66 | – | fold decrease in hM4 activity with R1 larger than methyl [1]: > 66 fold |
| Cc1nc(C2CC2)nc2sc3c(NCc4ccc(C(C)(C)O)cc4)nccc3c12 [22o] | 5.85 | 97 | 5.86 | fold decrease in hM4 activity with R1 larger than methyl [1]: 9.3 fold |
| CCc1nc(C)c2c(n1)sc1c(NCc3ccc(C(C)(C)O)cc3)nccc12 [22p] | 6.11 | 81 | – | fold decrease in hM4 activity with R1 larger than methyl [1]: 4.0 fold |
| Cc1nc(C2CC2)nc2sc3c(N4CCCC4)nccc3c12 [22q] | 6.00 | 65 | 6.00 | fold decrease in hM4 activity with R1 larger than methyl [1]: > 13 fold |
| Cc1nc(C)c2c(n1)sc1c(C3CC3)nccc12 [23a] | 6.24 | 109 | – | – |
| Cc1nc(C)c2c(n1)sc1c(CC(C)(C)C)nccc12 [23b] | 6.62 | 86 | – | – |
| Cc1nc(C)c2c(n1)sc1c(NCc3ccc(C(C)(C)O)cc3)ncc(Cl)c12 [26a] | – | 92 | 5.48 | – |
| Cc1nc(C)c2c(n1)sc1c(N3CCCC3)ncc(Cl)c12 [26b] | 6.16 | 61 | – | – |
| Cc1nc(C)c2c(n1)sc1c(NCc3ccc(C(C)(C)O)cc3)ncc(C3CC3)c12 [compound 27] | – | – | – | EC50 [1, 9]: > 31.6 µM |
| Cc1nc(C)c2c(n1)sc1c(NCc3ccc(C(C)(C)O)cc3)ncc(C#N)c12 [compound 28] | 6.02 | 62 | – | – |
